# Experimental data from patent US10952992B2, “Methods of treating intraocular pressure with activators of Tie-2” (Aerpio Pharmaceuticals, Inc., priority 2015, dated 2021).
# Values joined by “and” are separate entries in the source; they are usually repeats but may differ in a detail not shown here. Identical values can stand only once.
# Experiment: Example 2 plasma concentrations and pharmacokinetics after topical ocular, subcutaneous, intravitreal administration
# Type: in vivo, male New Zealand White rabbits
# Experimental: To measure the concentration of Compound 1 in plasma and ocular tissues following topical ocular, subcutaneous, and intravitreal administration, New Zealand White rabbits were administered Compound 1, and plasma and ocular samples were collected at pre-determined time points. Compound 1 formulations were prepared fresh on each day of dosing.
# Ocular tissue samples from both eyes of each animal were collected and weights were recorded. Plasma and ocular tissue sample concentrations of Compound 1 were determined by LC-MS/MS.
# New Zealand White rabbits weighing 2.5 to 3.5 kg were used on this study. Rabbits were housed one per cage. Animals were not fasted and only healthy animals with no ocular illness were used. Two rabbits per group were sacrificed at each of four ocular tissue sampling time points for a total of eight rabbits per group.
# Animals were anesthetized for ocular (topical) and intravitreal dosing following the 12IA7 IACUC protocol. Each rabbit received a bolus dose of test formulation either via topical ocular administration 3 times daily on Days 1 and 2 (at 0, 6, and 12 hours), and once on Day 3 (at 0 hours) into both eyes; via intravitreal administration into both eyes once on Day 1 (at 0 hours); or via subcutaneous administration 2 times daily on Days 1 and 2 (at 0 and 8 hours) and once daily on Day 3 (at 0 hours). Doses were given within an approximately 1 hour window each day where applicable.
# Each blood sample was collected on Day 3 post dose at pre-determined time points from the rabbits via an ear vessel and placed into chilled polypropylene tubes containing sodium heparin as an anticoagulant. Samples were spun by centrifuge at 4° C. and 3,000× g for 5 minutes. Samples were maintained chilled throughout processing. Each plasma sample was placed on dry ice and stored in a freezer at −60° C. to −80° C. pending bioanalysis.
# An LC-MS/MS method was developed for the determination of Compound 1 in rabbit aqueous tissues (plasma, aqueous and vitreous humor) and solid ocular tissue samples. A pre-study standard curve was analyzed to determine the specificity, range, and lower limit of quantitation of the method. Plasma and tissue homogenate study samples were extracted and analyzed. All the samples were treated identically to the standards.
# One eight-point standard curve was used in each analytical batch. To be accepted, each batch must have had at least five of eight standards with accuracy within ±20% of nominal, except at the lower limit of quantification (LLOQ), where ±25% was acceptable.
# Pharmacokinetic parameters were calculated from the time course of the plasma concentration. The maximum plasma concentration (Cmax) and time to the maximum plasma drug concentration (Tmax) were the observed values for each concentration-time profiles. The area under the plasma drug concentration-time curve (AUClast, with last being from time 0 to the last quantifiable point) was calculated using the trapezoidal formula. The mean residence time MRTlast was calculated as a ratio of AUMClast (area under the first movement curve) to AUClast.
# [1] = Group 3: subcutaneous 5 mg/kg/dose, 40 mM phosphate buffer pH 4.0 + 2.5% dextrose suspension
# [2] = Group 3: subcutaneous 5 mg/kg/dose, 40 mM phosphate buffer pH 4.0 + 2.5% dextrose suspension, 0.25 hr
# [3] = Group 3: subcutaneous 5 mg/kg/dose, 40 mM phosphate buffer pH 4.0 + 2.5% dextrose suspension, 0.50 hr
# [4] = Group 3: subcutaneous 5 mg/kg/dose, 40 mM phosphate buffer pH 4.0 + 2.5% dextrose suspension, 1.0 hr
# [5] = Group 3: subcutaneous 5 mg/kg/dose, 40 mM phosphate buffer pH 4.0 + 2.5% dextrose suspension, 2.0 hr
# [6] = Group 3: subcutaneous 5 mg/kg/dose, 40 mM phosphate buffer pH 4.0 + 2.5% dextrose suspension, 4.0 hr
# [7] = Group 3: subcutaneous suspension, normalized by nominal dose 5 mg/kg
# [8] = Group 5: intravitreal 2.5 mg/eye (~1.54 mg/kg), 40 mM phosphate buffer pH 4.0 suspension
# [9] = Group 5: intravitreal 2.5 mg/eye (~1.54 mg/kg), 40 mM phosphate buffer pH 4.0 suspension, 1.0 hr
# [10] = Group 5: intravitreal 2.5 mg/eye (~1.54 mg/kg), 40 mM phosphate buffer pH 4.0 suspension, 3.0 hr
# [11] = Group 5: intravitreal 2.5 mg/eye (~1.54 mg/kg), 40 mM phosphate buffer pH 4.0 suspension, 6.0 hr
# [12] = Group 5: intravitreal 2.5 mg/eye (~1.54 mg/kg), 40 mM phosphate buffer pH 4.0 suspension, 24.0 hr
# [13] = Group 5: intravitreal 2.5 mg/eye (~1.54 mg/kg), 40 mM phosphate buffer pH 4.0 suspension, 48.0 hr
# [14] = Group 5: intravitreal 2.5 mg/eye (~1.54 mg/kg), 40 mM phosphate buffer pH 4.0 suspension, 72.0 hr
# [15] = Group 5: intravitreal suspension, normalized by nominal dose 1.54 mg/kg
compound,measurement,setting,value
COC(=O)N[C@@H](Cc1ccccc1)C(=O)N[C@@H](Cc1ccc(NS(=O)(=O)O)cc1)c1csc(-c2cccs2)n1 [Compound 1 free acid],plasma AUClast (± SE),[1],864 ± 69 ng·h/mL and 864 ng·h/mL
same,plasma AUC∞,[1],1198 ng·h/mL
same,plasma Cmax (± SE),[1],395 ± 170 ng/mL and 395 ng/mL
same,plasma MRTlast,[1],1.58 h
same,plasma t1/2,[1],2.12 h
same,plasma tmax,[1],0.25 h
same,plasma Average conc.,[2],395 ng/mL
same,"plasma Conc., individual rabbit",[2],225 ng/mL and 565 ng/mL
same,plasma Average conc.,[3],337 ng/mL
same,"plasma Conc., individual rabbit",[3],272 ng/mL and 401 ng/mL
same,plasma Average conc.,[4],295 ng/mL
same,"plasma Conc., individual rabbit",[4],300 ng/mL and 289 ng/mL
same,plasma Average conc.,[5],206 ng/mL
same,"plasma Conc., individual rabbit",[5],194 ng/mL and 217 ng/mL
same,plasma Average conc.,[6],110 ng/mL
same,"plasma Conc., individual rabbit",[6],111 ng/mL and 108 ng/mL
same,"plasma AUClast, dose normalized",[7],173 ± 13.8 kg·ng·h/mL/mg and 173 kg·ng·h/mL/mg
same,"plasma AUC∞, dose normalized",[7],240 kg·ng·h/mL/mg
same,plasma AUClast (± SE),[8],707 ± 53.1 ng·h/mL and 707 ng·h/mL
same,plasma AUC∞,[8],746 ng·h/mL
same,plasma Cmax (± SE),[8],25.3 ± 9.30 ng/mL and 25.3 ng/mL
same,plasma MRTlast,[8],19.1 h
same,plasma t1/2,[8],16.5 h
same,plasma tmax,[8],1.00 h
same,plasma Average conc.,[9],25.3 ng/mL
same,"plasma Conc., individual rabbit",[9],34.6 ng/mL and 16.0 ng/mL
same,plasma Average conc.,[10],24.4 ng/mL
same,"plasma Conc., individual rabbit",[10],28.4 ng/mL and 20.4 ng/mL
same,plasma Average conc.,[11],23.1 ng/mL
same,"plasma Conc., individual rabbit",[11],22.0 ng/mL and 24.1 ng/mL
same,plasma Average conc.,[12],12.3 ng/mL
same,"plasma Conc., individual rabbit",[12],9.96 ng/mL and 14.7 ng/mL
same,plasma Average conc.,[13],3.63 ng/mL
same,"plasma Conc., individual rabbit",[13],2.69 ng/mL and 4.57 ng/mL
same,plasma Average conc.,[14],1.65 ng/mL
same,"plasma Conc., individual rabbit",[14],1.83 ng/mL and 1.46 ng/mL
same,plasma tmax,"Group 5: intravitreal 2.5 mg/eye (~1.54 mg/kg), 40 mM phosphate buffer pH 4.0 suspension, listed as Compound 1 (free acid)",1 h
same,"plasma AUClast, dose normalized",[15],459 ± 34.5 kg·ng·h/mL/mg and 459 kg·ng·h/mL/mg
same,"plasma AUC∞, dose normalized",[15],484 kg·ng·h/mL/mg
